Laboratory results taken from patent US10028961B2, “Therapeutically active compounds and their methods of use” (AGIOS PHARMACEUTICALS, INC., priority 2013, dated 2018).
Read-outs that look alike come from different tables or passages of the source.

Columns and labels:
[1] = biological target: IDH1-R132H homodimer enzyme (Homo sapiens (Human), UniProt O75874, R132H); experiment: In vitro assay IDH1-R132H homodimer, NADPH depletion assay with NADPH/NADP preincubation; type: biochemical; settings: 5 μM NADPH and 37.5 μM NADP
Outline: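 Compounds were added from DMSO at 50× final concentration, and the mutant enzyme was incubated 60 min at room temperature after starting with a substrate mix holding NADPH and 5 mM alpha-ketoglutarate. Residual cofactor, read by fluorescence after excess diaphorase and resazurin, reflects enzyme turnover.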

[2] = tested on: Neurosphere cells (TS603); experiment: Cellular assay for IDH1m R132H inhibitors, 2-HG by LC-MS in neurosphere cells (TS603); type: cell-based; settings: 2-HG in media at 48 hours
Outline: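 TS603 neurosphere cells in NeuroCult medium were dosed with compound (0.25% DMSO final) at 37 C, 5% CO2. After 48 hours, medium 2-HG was measured by LC-MS. At 72 hours, viability was read by CellTiter-Glo luminescence.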

[3] = biological target: IDH1 wt/IDH1 R132H heterodimer (Homo sapiens (Human), UniProt O75874, R132H); experiment: In vitro assay for IDH1m R132H inhibitors, IDH1 wt/IDH1 R132H heterodimer, NADPH depletion (diaphorase/resazurin); type: biochemical
Outline: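 Read-out is NADPH left after α-KG reduction to 2-HG, measured via resorufin fluorescence after 5 min diaphorase/resazurin step at 25° C. Enzyme is sf9-expressed IDH1wt-his/IDH1R132H-flag heterodimer, pre-incubated 1 hr at room temperature with compound and cofactor. IC50s from DMSO stocks diluted 1:50.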

[4] = tested on: U87MG pLVX-IDH2 R140Q-neo cells; experiment: U87MG pLVX-IDH2 R140Q-neo cell based assay, 2-HG by LC-MS; settings: Homo sapiens, U-87 MG
[5] = biological target: IDH1-R132C homodimer enzyme (Homo sapiens (Human), UniProt O75874, R132C); experiment: In vitro assay IDH1-R132C homodimer, NADPH depletion assay with NADPH/NADP preincubation; type: biochemical; settings: 5 uM NADPH and 28.75 uM NADP, read-out: IDH R132C NADPH/NADP IC50
Experimental: The following describes the experimental procedures that can be used to obtain data on columns 3 and 5 of Table 5.
A test compound is prepared as 10 mM stock in DMSO and diluted to 50× final concentration in DMSO, for a 50 μl reaction mixture. IDH enzyme activity converting alpha-ketoglutarate to 2-hydroxyglutaric acid is measured using a NADPH depletion assay. In the assay the remaining cofactor is measured at the end of the reaction with the addition of a catalytic excess of diaphorase and resazurin, to generate a fluorescent signal in proportion to the amount of NADPH remaining. […] The reaction is started with the addition of 10 μl of Substrate Mix ([…], 5 mM alpha-ketoglutarate, in Assay Buffer) and the mixture is incubated for 60 minutes at room temperature.
The concentration of alpha-ketoglutarate in the Substrate Buffer is 1 mM.

IDH2 R140Q [6] = biological target: T1, IDH2 R140Q (Homo sapiens (Human), UniProt P48735, R140Q); experiment: In vitro assay for IDH2m R140Q inhibitors, cofactor depletion assay; type: biochemical; settings: IDH2 R140Q enzyme
Outline: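 Remaining cofactor measured fluorimetrically: diaphorase/resazurin Stop Mix […], halting the reaction. Before that, mutant enzyme and compound sat 1 h at RT, then substrate mix (4 μM NADPH, 1.6 mM α-KG) was added for 16 h at RT.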

[7] = biological target: IDH1 wt/IDH1 R132C heterodimer (Homo sapiens (Human), UniProt O75874, R132C); experiment: In vitro assay for IDH1m R132C inhibitors, IDH1 wt/IDH1 R132C heterodimer, NADPH depletion (diaphorase/resazurin); type: biochemical; settings: NADPH/NADP
Experimental: The following describes the experimental procedures that can be used to obtain data on columns 2 and 4 of Table 4 and column 2 of Table 5.
In the primary reaction, the reduction of α-KG acid to 2-HG is accompanied by a concomitant oxidation of NADPH to NADP. The amount of NADPH remaining at the end of the reaction time is measured in a secondary diaphorase/resazurin reaction in which the NADPH is consumed in a 1:1 molar ratio with the conversion of resazurin to the highly fluorescent resorufin.
The mixture of compound, enzyme, and cofactor is pre-incubated at room temperature for 1 hr prior to the addition of alpha-ketoglutarate. To perform the secondary reaction, 10 uL of 1× buffer containing 36 μg/ml diaphorase and […] resazurin is added to the primary reaction and incubated for a further 5 minutes at 25° C. Florescence is read on a Spectramax platereader at Ex 544 Em 590. Compounds or compound dilutions are prepared in 100% DMSO concentration and diluted 1:50 into the final reaction. […] IC50s are determined.
IDH1 or IDH2 wildtype (wt) and mutant heterodimers are expressed and purified by methods known in the art. For example, IDH1wt/R132m heterodimer is expressed and purified as follows. Co-expression of IDH1wt-his and IDH1R132C-flag is carried out in sf9 insect cells. Cells (25 g) are resuspended in 250 ml of 50 mM Tirs, 500 mM NaCl, pH7.4, at 4° C. with stirring. Cells are disrupted with 4 passes through an M-Y110 Micro fluidizer (Microfluidics) set to 500 psi, and then centrifuged at 22,000 rcf for 20 min at 4° C. The supernatant is harvested and loaded at 15 cm/h on a Histrap FF 5*1 ml column (GE) which is equilibrated with 50 mM Tirs, 500 mM NaCl, pH7.4. Host cell contaminants are removed by washing the column with equilibration buffer followed by equilibration buffer containing 20 mM imidazole and 60 mM imidazole to baseline. IDH1wt-his homodimer and IDH1wt-his/IDH1R132C-flag are eluted by equilibration buffer containing 250 mM imidazole. Fractions eluted by 250 mM imidazole are pooled together and loaded at 15 cm/h onto a column pre-packed with 10 ml ANTI-FLAG® M2 Affinity Gel (Sigma), the column is equilibrated with 50 mM Tris, 500 mM NaCl, pH7.4. After washing with equilibration buffer, IDH1wt-his/IDH1R132C-flag heterodimer is eluted by equilibration buffer containing flag peptide (0.2 mg/ml). Aliquots of IDH1wt-his/IDH1R132C-flag are flash frozen in liquid N2 and stored at −80° C. Same conditions are used for the purification of IDH1wt-his/IDH1R132H-flag.

IDH2 R140Q [8] = biological target: T1, IDH2 R140Q; experiment: In vitro assay for IDH2m R140Q inhibitors, cofactor depletion assay, 16 hr preincubation with NADPH/NADP; type: biochemical; settings: read-out: IDH2 R140Q 16 hr NADPH/NADP IC50; 16 hrs preincubation with enzyme, 5 uM NADPH and 750 uM NADP
Source text: The following describes the experimental procedures used to obtain data on column 6 of Table 5.
The reaction is terminated by the addition of a second enzyme, diaphorase, and a corresponding substrate, resazurin. Diaphorase reduces resazurin to the highly fluorescent resorufin with the concomitant oxidation of NADPH to NADP, both halting the IDH2 reaction by depleting the available cofactor pool and facilitating quantitation of the amount of cofactor remaining after a specific time period through quantitative production of an easily detected fluorophore.
The test compound is then incubated for 16 hrs at room temperature with the enzyme and cofactors before starting the IDH2 reaction with the addition of 10 μl of substrate mix containing 8 mM α-KG (final concentration 1.6 mM) in the buffer described above. After a further 1 hour of incubation at room temperature, the reaction is halted and the remaining NADPH measured through conversion of resazurin to resorufin by the addition of 25 μl Stop Mix (36 μg/ml diaphorase enzyme and 60 μM resazurin; in buffer).

[9] = IDH1 wt/IDH1 R132H heterodimer, 300 μM NADP (saturated), read-out: IDH1 wt/R132H NADPH/NADP IC50 saturated
[10] = IDH1 wt/R132H heterodimer, NADPH/NADP, not saturated, read-out: IDH1 wt/R132H NADPH/NADP IC50 not saturated

T1 sequence (P48735 40-452 R140Q): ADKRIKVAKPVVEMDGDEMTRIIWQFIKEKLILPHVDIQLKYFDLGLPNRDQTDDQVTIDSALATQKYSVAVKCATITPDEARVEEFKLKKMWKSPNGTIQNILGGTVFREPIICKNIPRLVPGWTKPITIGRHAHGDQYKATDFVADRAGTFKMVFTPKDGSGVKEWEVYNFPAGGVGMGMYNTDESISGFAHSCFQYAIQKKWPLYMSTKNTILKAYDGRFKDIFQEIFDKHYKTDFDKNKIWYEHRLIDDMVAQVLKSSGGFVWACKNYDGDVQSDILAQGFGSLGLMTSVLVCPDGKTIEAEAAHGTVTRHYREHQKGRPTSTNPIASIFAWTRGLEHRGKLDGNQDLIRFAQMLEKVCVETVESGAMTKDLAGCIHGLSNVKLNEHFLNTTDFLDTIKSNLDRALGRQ
Sequence of IDH1-R132H homodimer enzyme (O75874 whole entry R132H): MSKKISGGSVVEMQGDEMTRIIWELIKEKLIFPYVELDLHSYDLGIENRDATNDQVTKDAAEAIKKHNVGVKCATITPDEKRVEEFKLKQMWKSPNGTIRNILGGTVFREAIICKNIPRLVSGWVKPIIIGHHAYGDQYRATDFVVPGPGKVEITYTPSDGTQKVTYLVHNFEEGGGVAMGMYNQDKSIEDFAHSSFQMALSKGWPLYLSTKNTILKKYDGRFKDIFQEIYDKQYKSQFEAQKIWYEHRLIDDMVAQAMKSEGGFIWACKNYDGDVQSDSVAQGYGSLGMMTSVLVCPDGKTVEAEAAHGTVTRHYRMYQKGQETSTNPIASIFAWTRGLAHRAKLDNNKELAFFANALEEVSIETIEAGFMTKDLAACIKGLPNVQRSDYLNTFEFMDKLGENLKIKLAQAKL
Sequence of IDH1 wt/IDH1 R132H heterodimer (O75874 whole entry R132H): as above
Sequence of IDH1 wt/IDH1 R132H heterodimer (O75874 whole entry, stated change not applied): as the sequence (O75874 whole entry R132H) above, with H132R counted along it
Sequence of IDH1-R132C homodimer enzyme (O75874 whole entry R132C): as the sequence (O75874 whole entry R132H) above, with H132C counted along it
Sequence of IDH1 wt/IDH1 R132C heterodimer (O75874 whole entry R132C): as the sequence (O75874 whole entry R132H) above, with H132C counted along it
Sequence of IDH1 wt/IDH1 R132C heterodimer (O75874 whole entry, stated change not applied): as the sequence (O75874 whole entry R132H) above, with H132R counted along it

| IC50 [1] [nM] | IC50 [2] [nM] | IC50 [3, 9] [nM] | IC50 [4] [nM] | IC50 [5] [nM] | IC50 (IDH2 R140Q [6]) [nM] | IC50 [3, 10] [nM] | IC50 [7] [nM] | IC50 (IDH2 R140Q [8]) [nM] | Compound |
| --- | --- | --- | --- | --- | --- | --- | --- | --- | --- |
| 100 to 1000 | < 50 | < 50 | < 50 | 100 to 1000 | < 50 |  |  |  | C[C@@H](Nc1nc(Nc2ccnc(C(F)(F)F)c2)nc(-n2ccc(C(F)(F)F)n2)n1)C(F)(F)F [Compound 400] |
| < 50 | < 50 |  | < 50 | 50 to 100 | < 50 | < 50 |  |  | N#CC1(c2cc(Nc3nc(N[C@H]4CCC(F)(F)C4)nc(-n4ccc(C(F)(F)F)n4)n3)ccn2)CC1 [Compound 174] |
| 100 to 1000 |  |  | 50 to 100 |  | 50 to 100 | 50 to 100 | 50 to 100 | < 50 | C[C@@H](Nc1nc(NCCOc2ccccc2)nc(-c2cccc(C(F)(F)F)n2)n1)C1CC1 [Compound 246] |
|  |  |  | < 50 |  | < 50 | > 1000 | ≥ 1000 | 50 to 100 | CC(C)(O)CNc1nc(Nc2cc(F)cc(F)c2)nc(-c2nccc(C(F)(F)F)n2)n1 [Compound 325] |
| > 1000 |  |  |  |  |  | 100 to 1000 | 100 to 1000 | 100 to 1000 | CC(C)(C)OC(=O)N1CCC(Nc2nc(NC3CCC(F)(F)CC3)nc(-c3cccc(C(F)(F)F)n3)n2)CC1 [Compound 274] |
|  |  |  | < 50 |  | 100 to 1000 | 50 to 100 | 100 to 1000 | < 50 | CC(C)(O)CNc1nc(Nc2cccc(Cl)c2)nc(-c2cccc(C(F)(F)F)n2)n1 [Compound 248] |
| > 1000 |  |  |  |  |  | 100 to 1000 | 100 to 1000 | 100 to 1000 | C[C@@H](Nc1nc(NCC(C)(C)C#N)nc(-c2cccc(C(F)(F)F)n2)n1)C1CC1 [Compound 262] |
| > 1000 |  |  |  |  |  | 100 to 1000 | 100 to 1000 | 100 to 1000 | FC1(F)CC2(CC(Nc3nc(NC4CC5(C4)CC(F)(F)C5)nc(-c4cccc(Cl)n4)n3)C2)C1 [Compound 265] |
| 50 to 100 | < 50 |  | < 50 | 100 to 1000 | < 50 | < 50 |  |  | FC1(F)CC[C@H](Nc2nc(Nc3ccnc(C(F)(F)F)c3)nc(-c3cccc(C(F)(F)F)n3)n2)C1 [Compound 158] |
| 100 to 1000 |  |  |  |  |  | 100 to 1000 | 100 to 1000 | 100 to 1000 | CC(CC#N)Nc1nc(NC(C)CC#N)nc(-c2cccc(Cl)n2)n1 (stereo not drawn) [Compound 271] |
| 100 to 1000 |  |  |  |  |  | < 50 | 100 to 1000 | 50 to 100 | CC(COC(C)C)Nc1nc(N[C@H](C)C2CC2)nc(-c2cccc(C(F)(F)F)n2)n1 (stereo partly drawn) [Compound 241] |
| < 50 | < 50 | < 50 | < 50 | 50 to 100 | < 50 |  |  |  | N#CC1(c2cc(Nc3nc(N[C@@H]4CCC(F)(F)C4)nc(-n4ccc(C(F)(F)F)n4)n3)ccn2)CC1 [Compound 350] |
| < 50 | < 50 | < 50 | < 50 | < 50 | < 50 |  |  |  | FC1(F)CC[C@@H](Nc2nc(N[C@@H]3CCC(F)(F)C3)nc(-c3cncc(C(F)(F)F)n3)n2)C1 [Compound 410] |
| 100 to 1000 | < 50 |  | < 50 | > 1000 | < 50 | < 50 |  |  | FC1(F)CC(Nc2nc(Nc3ccnc(C(F)(F)F)c3)nc(-c3cccc(C(F)(F)F)n3)n2)C1 [Compound 190] |
| > 1000 |  |  | < 50 |  | < 50 | 100 to 1000 | 100 to 1000 | 50 to 100 | CC(C)(C#N)CNc1nc(Nc2ccnc(C(C)(F)F)c2)nc(-c2cccc(C(F)(F)F)n2)n1 [Compound 267] |
| 50 to 100 | < 50 |  | < 50 | 100 to 1000 | < 50 | < 50 |  |  | N#CC1(c2cc(Nc3nc(N[C@H]4CCC(F)(F)C4)nc(-c4cccc(C(F)(F)F)n4)n3)ccn2)CC1 [Compound 133] |
| 50 to 100 | < 50 | < 50 | < 50 | 100 to 1000 | < 50 |  |  |  | FC1(F)CC[C@H](Nc2nc(Nc3ccnc(C(F)(F)F)c3)nc(-n3ccc(C(F)(F)F)n3)n2)C1 [Compound 393] |
| > 1000 |  |  | < 50 |  | < 50 | 100 to 1000 | ≥ 1000 | 50 to 100 | CC(C)Nc1nc(Nc2ccnc(C(C)(F)F)c2)nc(-c2nccc(C(F)(F)F)n2)n1 [Compound 298] |
| > 1000 |  |  | < 50 |  | < 50 | 100 to 1000 | ≥ 1000 | 50 to 100 | CC(C)(C)Nc1nc(Nc2ccnc(C(C)(F)F)c2)nc(-c2nccc(C(F)(F)F)n2)n1 [Compound 289] |
| < 50 | < 50 |  | < 50 | 100 to 1000 | < 50 | < 50 |  |  | N#CC1(c2cc(Nc3nc(N[C@@H]4CCC(F)(F)C4)nc(-c4cccc(C(F)(F)F)n4)n3)ccn2)CC1 [Compound 137] |
